In patent US11981661B2, “Heterocyclic compounds” (Hoffmann-La Roche Inc., priority 2020, dated 2024):

Molecular target: T1, MAGL (Homo sapiens, UniProt Q99685)
T1 sequence (Q99685 1-303): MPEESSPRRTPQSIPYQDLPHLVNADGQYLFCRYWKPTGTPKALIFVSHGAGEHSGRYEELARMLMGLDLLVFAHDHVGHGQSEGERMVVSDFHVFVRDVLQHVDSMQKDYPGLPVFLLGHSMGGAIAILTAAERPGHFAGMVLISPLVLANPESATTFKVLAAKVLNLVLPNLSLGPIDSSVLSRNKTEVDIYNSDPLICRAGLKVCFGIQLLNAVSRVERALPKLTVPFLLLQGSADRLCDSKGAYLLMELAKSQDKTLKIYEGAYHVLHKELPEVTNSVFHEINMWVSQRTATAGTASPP
Test: 2-AG assay (MAGL inhibitory activity, hydrolysis of 2-arachidonoylglycerol followed by mass spectrometry)
Assay type: biochemical
Conditions: 50 pM MAGL, 8 μM 2-arachidonoylglycerol, 15 min preincubation, 30 min incubation at RT, concentration range 12.5 μM to 0.8 pM
Summary of the method: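 Activity derived from the arachidonic acid/d8-arachidonic acid MS intensity ratio after acetonitrile quench. Reaction: 8 μM 2-AG substrate with 50 pM MAGL, 30 min at RT, following 15 min RT compound preincubation; buffer 50 mM TRIS, 1 mM EDTA, 0.01% Tween; final compound range 12.5 μM to 0.8 pM.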

Compound	IC50
O=C1N[C@H](CCC(=O)N2CC(c3ccc(N4CCC(O)(C(F)(F)F)C4)nc3)C2)CO1 (stereo partly drawn) [Example 205, (+)- or (−)-(4R)-4-[3-[3-[6-[3-Hydroxy-3-(trifluoromethyl)pyrrolidin-1-yl]-3-pyridyl]azetidin-1-yl]-3-oxo-propyl]oxazolidin-2-one]	170 nM
O=C1N[C@H](CCC(=O)N2CC3(CC(Oc4ccc(C(F)(F)F)nn4)C3)C2)CO1 [Example 152, (4R)-4-[3-Oxo-3-[6-[6-(trifluoro-methyl)pyridazin-3-yl]oxy-2-azaspiro[3.3]heptan-2-yl]propyl] oxazolidin-2-one]	1410 nM
CS(=O)(=O)c1ccc(CC2CC3(C2)CN(C(=O)CC[C@@H]2COC(=O)N2)C3)cc1 [Example 180, (4R)-4-[3-[6-[(4-Methyl-sulfonylphenyl)methyl]-2-azaspiro[3.3]heptan-2-yl]-3-oxo-propyl]oxazolidin-2-one]	93 nM
CS(=O)(=O)c1ccc(-c2ccc(C3CN(C(=O)CC[C@@H]4COC(=O)N4)C3)cn2)c(Cl)c1 [Example 116, (4R)-4-[3-[3-[6-(2-Chloro-4-methylsulfonyl-phenyl)-3-pyridyl]azetidin-1-yl]-3-oxo-propyl]oxazolidin-2-one]	160 nM
N#CC1(c2ccc(C3CN(C(=O)CC[C@@H]4COC(=O)N4)C3)cn2)CCC1 [Example 78, 1-[5-[1-[3-[(4R)-2-Oxooxazolidin-4-yl]propanoyl]azetidin-3-yl]-2-pyridyl]cyclobutane-carbonitrile]	981 nM
O=C1N[C@@H](CCC(=O)N2CC(c3ccc(-c4ccc(F)cc4F)cc3)C2)CO1 [Example 23, (4S)-4-[3-[3-[4-(2,4-Difluorophenyl)phenyl]azetidin-1-yl]-3-oxo-propyl]oxazolidin-2-one]	381 nM
O=C1N[C@H](CCC(=O)N2CC3(CCN(Cc4ccc(S(=O)(=O)C(F)(F)F)cc4)CC3)C2)CO1 [Example 194, (4R)-4-[3-Oxo-3-[7-[[4-(trifluoro-methylsulfonyl)phenyl]methyl]-2,7-diazaspiro[3.5]nonan-2-yl]propyl] oxazolidin-2-one]	61 nM
O=C1N[C@H](CCC(=O)N2CC3(C2)CN(S(=O)(=O)c2ccc(C(F)(F)F)cc2)C3)CO1 [Example 147, (4R)-4-[3-Oxo-3-[2-[4-(trifluoromethyl)phenyl]sulfonyl-2,6-diazaspiro [3.3]heptan-6-yl]propyl] oxazolidin-2-one]	2270 nM
O=C1NC(CCC(=O)N2CC3(CCC(Cc4ccc(C(F)(F)F)nc4)C3)C2)CO1 (single isomer, unassigned) [Example 211, (+)- or (−)-(4R)-4-[3-Oxo-3-[6-[[6-(trifluoromethyl)-3-pyridyl]methyl]-2-azaspiro[3.4]octan-2-yl]propyl]oxazolidin-2-one]	84 nM
O=C1N[C@H](CCC(=O)N2CC3(CC(Cc4ccc(C(F)(F)F)nn4)C3)C2)CO1 [Example 181, (4R)-4-[3-Oxo-3-[6-[[6-(trifluoro-methyl)pyridazin-3-yl]methyl]-2-azaspiro[3.3]heptan-2-yl]propyl] oxazolidin-2-one]	227 nM
O=C(CCCc1cnn[nH]1)N1CC(c2ccc(N3CC(OCC(F)(F)F)C3)cc2)C1 [Example 46, 4-(1H-Triazol-5-yl)-1-[3-[4-[3-(2,2,2-trifluoroethoxy)azetidin-1-yl]phenyl]azetidin-1-yl]butan-1-one]	323 nM
O=C1CCC(CCC(=O)N2CC(c3ccc(CC(F)(F)F)cc3)C2)N1 (single isomer, unassigned) [Example 7, (−)- or (+)-5-[3-Oxo-3-[3-[4-(2,2,2-trifluoroethyl)phenyl]azetidin-1-yl]propyl]pyrrolidin-2-one]	2580 nM
O=C1NC(CCC(=O)N2CC(c3cnc(N4CCC(C(F)(F)F)C4)nc3)C2)CO1 (single isomer, unassigned) [Example 209, (+)- or (−)-(4R)-4-[3-Oxo-3-[3-[2-[3-(trifluoromethyl)pyrrolidin-1-yl]pyrimidin-5-yl]azetidin-1-yl]propyl]oxazolidin-2-one]	131 nM
CN(c1ccccc1)c1ccc(C2CN(C(=O)CC[C@@H]3COC(=O)N3)C2)cn1 [Example 93, (4R)-4-[3-[3-[6-(N-Methyl-anilino)-3-pyridyl]azetidin-1-yl]-3-oxo-propyl]oxazolidin-2-one]	173 nM
O=C1N[C@H](CCC(=O)N2CC(NCc3ccc(C(F)(F)F)cc3)C2)CO1 [Example 155, (4R)-4-[3-Oxo-3-[3-[[4-(trifluoromethyl)phenyl]methyl-amino]azetidin-1-yl]propyl] oxazolidin-2-one]	284 nM
O=C1N[C@H](CCC(=O)N2CC(c3cnc(N4CC5(C4)CC(F)(F)C5)cn3)C2)CO1 [Example 139, (4R)-4-[3-[3-[5-(6,6-Difluoro-2-azaspiro[3.3]heptan-2-yl)pyrazin-2-yl]azetidin-1-yl]-3-oxo-propyl]oxazolidin-2-one]	123 nM
O=C1COCC(CCC(=O)N2CC(OCc3ccc(C(F)(F)F)cc3F)C2)N1 (single isomer, unassigned; (-)) [Example 50, (−)-5-[3-[3-[[2-Fluoro-4-(trifluoromethyl)phenyl]methoxy]azetidin-1-yl]-3-oxo-propyl]morpholin-3-one]	≥ 12500 nM
O=C1N[C@H](CCC(=O)N2CC3(C2)CN(S(=O)(=O)c2ccc(OC(F)(F)F)cc2)C3)CO1 [Example 150, (4R)-4-[3-Oxo-3-[2-[4-(trifluoro-methoxy)phenyl]sulfonyl-2,6-diazaspiro[3.3]heptan-6-yl]propyl] oxazolidin-2-one]	2140 nM

Molecules with a lower IC50, results first:

IC50	Compound
3 nM	CS(=O)(=O)c1cc(Cl)cnc1-c1ccc(C2CN(C(=O)CC[C@@H]3COC(=O)N3)C2)cc1 [Example 115, (4R)-4-[3-[3-[4-(5-Chloro-3-methylsulfonyl-2-pyridyl)phenyl]azetidin-1-yl]-3-oxo-propyl]oxazolidin-2-one]
0.26 nM	CS(=O)(=O)c1ccc(-c2ccc(C3CN(C(=O)CC[C@@H]4COC(=O)N4)C3)cc2)c(C(F)(F)F)c1 [Example 128, (4R)-4-[3-[3-[4-[4-Methyl-sulfonyl-2-(trifluoromethyl)phenyl]phenyl]azetidin-1-yl]-3-oxo-propyl] oxazolidin-2-one]
21 nM	O=C1N[C@H](CCC(=O)N2CC(c3ccc(C4(CO)CC4)cc3)C2)CO1 [Example 171, (4R)-4-[3-[3-[4-[1-(Hydroxy-methyl)cyclo-propyl]phenyl]azetidin-1-yl]-3-oxo-propyl] oxazolidin-2-one]
27 nM	CN(CCc1cnn[nH]1)C(=O)N1CC(c2ccc(-c3ccc(S(C)(=O)=O)cc3Cl)cc2)C1 [Example 67, 3-[4-(2-Chloro-4-methylsulfonyl-phenyl)phenyl]-N-methyl-N-[2-(1H-triazol-5-yl)ethyl]azetidine-1-carboxamide]
59 nM	O=C1N[C@H](CCC(=O)N2CC3(CCC(Cc4ccc(C(F)(F)F)nc4)C3)C2)CO1 (single isomer, unassigned) [Example 210, (−)- or (+)-(4R)-4-[3-Oxo-3-[6-[[6-(trifluoromethyl)-3-pyridyl]methyl]-2-azaspiro[3.4]octan-2-yl]propyl]oxazolidin-2-one]
12 nM	O=C1N[C@H](CCC(=O)N2CC(C#Cc3cccc(Cl)c3)C2)CO1 [Example 33, (4R)-4-[3-[3-[2-(3-Chlorophenyl)ethynyl]azetidin-1-yl]-3-oxo-propyl]oxazolidin-2-one]
7 nM	CS(=O)(=O)c1ccc(-c2ccc(C3CN(C(=O)CC[C@@H]4COC(=O)N4)C3)nc2)c(Cl)c1 [Example 108, (4R)-4-[3-[3-[5-(2-Chloro-4-methylsulfonyl-phenyl)-2-pyridyl]azetidin-1-yl]-3-oxo-propyl]oxazolidin-2-one]
27 nM	O=C1N[C@H](CCC(=O)N2CC(c3ccc(Oc4nccc(C5CC5)n4)cc3)C2)CO1 [Example 80, (4R)-4-[3-[3-[4-(4-Cyclopropyl-pyrimidin-2-yl)oxyphenyl]azetidin-1-yl]-3-oxo-propyl] oxazolidin-2-one]
27 nM	O=C1N[C@H](CCC(=O)N2CC(OCc3cccc(S(=O)(=O)C(F)(F)F)c3)C2)CO1 [Example 167, (4R)-4-[3-Oxo-3-[3-[[3-(trifluoro-methylsulfonyl)phenyl]methoxy]azetidin-1-yl]propyl]oxazolidin-2-one]
16 nM	O=C1N[C@H](CCC(=O)N2CC3(CCC(Cc4ccc(C(F)(F)F)cn4)CC3)C2)CO1 [Example 189, (4R)-4-[3-Oxo-3-[7-[[5-(trifluoro-methyl)-2-pyridyl]methyl]-2-azaspiro[3.5]nonan-2-yl]propyl] oxazolidin-2-one]
0.5 nM	O=C1N[C@H](CCC(=O)N2CC3(CC(Cc4ccc(F)cc4F)C3)C2)CO1 [Example 27, (4R)-4-[3-[6-[(2,4-Difluorophenyl)methyl]-2-azaspiro[3.3]heptan-2-yl]-3-oxo-propyl]oxazolidin-2-one]
10 nM	CS(=O)(=O)c1cc(Cl)ccc1-c1ccc(C2CN(C(=O)CC[C@@H]3COC(=O)N3)C2)cn1 [Example 117, (4R)-4-[3-[3-[6-(4-Chloro-2-methylsulfonyl-phenyl)-3-pyridyl]azetidin-1-yl]-3-oxo-propyl]oxazolidin-2-one]
0.35 nM	O=C1N[C@H](CCC(=O)N2CC(c3ccc(N(CC4CC4)c4ccccc4)nc3)C2)CO1 [Example 95, (4R)-4-[3-[3-[6-[N-(Cyclopropyl-methyl)anilino]-3-pyridyl]azetidin-1-yl]-3-oxo-propyl]oxazolidin-2-one]
